Experimental data taken from PMC11861159, “Design, synthesis, and in vitro, in vivo, and in silico evaluation of novel substituted 1,3,4-thiadiazole derivatives as anticonvulsant agents” (Frontiers in Chemistry, 2025).

Tests used:
[1] = system: total antioxidant capacity (TAC); experiment: Total antioxidant capacity (FRAP) in brain tissue of PTZ-treated mice; assay type: in vivo; conditions: compared to pentylenetetrazole-treated group, n = 6
Method: (§1) Brain tissue homogenates were prepared by isolating the brain (tissue) from the mice. Animals were euthanized under anesthesia by ketamine (80 mg/kg) and xylazine (5 mg/kg) after 8 h of inducing test and standard compounds. Mice’s brains (tissue) were quickly removed and weighed, and the whole brain samples were washed twice with ice-cold saline solution before being deposited in glass vials, labeled, and stored in a deep freeze (−30°C) until further use. Brain tissue samples were homogenized with a glass handheld homogenizer (PTFE coated). Tissue homogenates (10% w/v) were prepared in cold 0.1 M phosphate buffer (pH adjusted to 7.4) using a homogenizer. To test biological parameters, the supernatant from homogenates was centrifuged at 12,000 rpm for 20 min at 4°C.
Total antioxidant capacity (TAC) was measured by mixing 200 μL of tissue samples with 3 mL of ferric-reducing antioxidant power (FRAP) reagent in a vortex. After incubating samples and blank tubes in a water bath for 30 min at 37°C, the absorbance of the samples was measured at 593 nm. For the standard curve, a stock solution of FeSO4.7H2O in distilled water was produced. Stock solution concentrations were 200, 400, 800, 1200, and 1600 μM. The curve results were given as mM of ferrous sulfate equivalent Fe2+/L ([Sun et al., 1988]).

mice = experiment: Rotarod neurotoxicity screening; assay type: in vivo, male Swiss albino mice
Method: The rotarod test, as described in the literature, was used to evaluate neurotoxicity (NT) in mice. In brief, six mice (one group) were trained to balance on a spinning rod (3 cm diameter and 6 rpm speed) to familiarize with the rotarod apparatus (Orchid Scientific, India). Each mouse underwent three trials to remain on the rotating rod for over 1 minute, with the experiment’s cutoff time (180 s) remaining constant. Different pre-oral (p.o.) doses of test and standard substances were administered to the trained animals.

[2] = target: T1, human carbonic anhydrase IX (Homo sapiens, UniProt Q16790); experiment: Human carbonic anhydrase IX colorimetric (p-nitrophenyl acetate) inhibition assay; assay type: biochemical; conditions: mean ± SEM, three independent experiments in triplicate; read-out: CA IX (IC50)
T1 construct: purchased Sino Biological Inc, Beijing, China
Method: (§2) In brief, the reaction mixture contained 60 μL of 50 mM Tris-sulfate buffer (pH 7.6, containing 0.1 mM ZnCl2),10 μL (0.5 mM) of the test compound in 1% DMSO, and 10 μL of human carbonic anhydrase II and IX (Sino Biological Inc, Beijing, China). All the ingredients were mixed well and pre-incubated at 25°C for 10 min. Substrate p-nitrophenyl acetate was prepared as a 6 mM stock solution using 5% of acetonitrile in buffer and was used fresh. […] The total assay volume was adjusted to 100 μL and further incubated at 37°C for 30 min. Furthermore, all the ingredients were mixed properly, and absorbance was measured. […] The results reported are the mean of triplicate experiments (±SEM) and expressed IC50 values, which were calculated.

glutathione (GSH) = experiment: Reduced glutathione level in brain of PTZ-treated mice; assay type: in vivo; conditions: compared to pentylenetetrazole-treated group, n = 6
Method: as §1
The quantity of glutathione (GSH) in the brain was determined using the Sedlak and Lindsay method ([Pant et al., 2023]). In brief, brain tissue was deproteinized with an equal amount of 10% TCA and left at 4°C for 2 h. The contents were centrifuged for 15 min at 1200 rpm. The supernatant was mixed with 2 mL of 0.4 M Tris buffer (pH 8.9) containing 0.02 M EDTA (pH 8.9), and then 0.01 M DTNB was added. Finally, the mixture was diluted with 0.5 mL of distilled water to make a total volume of 3 mL, and absorbance was measured using a spectrophotometer at 412 nm, with results expressed as mg GSH/gm tissue.

nitric oxide (NO) = experiment: Nitrite/NO level (Greiss reagent) in brain homogenate of PTZ-treated mice; assay type: in vivo; conditions: brain supernatant, compared to pentylenetetrazole-treated group, n = 6
Method: as §1
Greiss reagent, a solution of 0.5% sulfonamide, 2.5% phosphoric acid, and 0.05% naphthyl ethylenediamine, was used to measure nitric oxide (NO) in TSH. Greiss reagent and TSH absorbance were measured at 540 nm, and the sodium nitrite standard curve was used to calculate the quantity of nitrite ([Wills, 1996]; [Green et al., 1982]).

induced seizures = experiment: Anticonvulsant screening (MES and sc-PTZ), outcome recovery/death
Method: The test compounds and the standard drugs were dissolved in a 0.9% NaCl solution.
After half an hour of p.o. administration of the standard and the tested compounds, an electro-convulsometer (Outus, Ambala Cantt, India) delivered an electrical stimulus of sufficient intensity (25 mA, 500 V, 50 Hz, 0.2 s) via auricular electrodes to induce maximal seizures (Figure 1). To avoid the animal’s death, a drop of 0.9% saline was injected into the eye before the insertion of the electrodes. The tonic hind limb extension (i.e., the hind limbs of the animals outstretched 180° to the plane of the body axis) served as the basic principle for the occurrence of seizure activity. Abolition of the hind limb tonic extensor (HLTE) component of the seizure is defined as protection.

GABA level = experiment: Estimation of brain GABA level; assay type: in vivo, mice; conditions: 30 mg/kg p.o., 2 h after administration, compared to pentylenetetrazole-treated group
Method: as §1, with “Animals were euthanized under anesthesia by ketamine (80 mg/kg) and xylazine (5 mg/kg) after 8 h of inducing test and standard compounds.” left out
The supernatant was put on silica gel 60 F254 aluminum sheets (10 cm × 10 cm) as the stationary phase, with the mobile phase consisting of water-saturated phenol. Prior to chromatography, TLC plates were prewashed with methanol and activated in an oven at 50°C for 5 min. The 0.1 mL supernatant solutions were applied in the form of bands on TLC plates. At room temperature, ascending development was carried out in a glass chamber saturated with the mobile phase for 30 min until a length of 80 mm was reached. The TLC plates that had been created were air-dried and treated with ninhydrin. […] The method’s specificity was determined by obtaining standard GABA samples and comparing their Rf values. […]

[3] = system: superoxide dismutase (SOD); experiment: Superoxide dismutase activity in brain homogenate of PTZ-treated mice; assay type: in vivo; conditions: compared to PTZ-administered group, n = 6
Method: as §1
Sun et al.'s approach ([…]) was used to determine Cu, Zn-SOD activity. An oxidase complex ([…]) generates superoxide radicals, which react with NBT to yield the formazan molecule in this process. In brief, a reactive was created by combining 0.1 mM xanthine, 0.1 mM EDTA, 50 mg bovine serum albumin, 25 mM NBT, and 40 mM Na2CO3 (pH 10.2). […] The sample’s absorbance was measured at 560 nm. […] The quantity of the enzyme that blocked NBT conversion to formazan by 50% was determined as one unit of SOD activity. SOD activity was measured in units per milligram of protein.

PTZ-induced seizures = experiment: Subcutaneous pentylenetetrazole (sc-PTZ) test; assay type: in vivo, male Swiss albino mice;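 for % protection Sc-PTZ 0.5 h: percent reduction of the test group versus the control group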;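 for % protection Sc-PTZ 4 h: percent reduction of the test group versus the control group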
[4] = target: T2, human carbonic anhydrase II (Homo sapiens, UniProt P00918); experiment: Human carbonic anhydrase II colorimetric (p-nitrophenyl acetate) inhibition assay; assay type: biochemical; conditions: mean ± SEM, three independent experiments in triplicate; read-out: CA II (IC50)
T2 construct: purchased Sino Biological Inc, Beijing, China
Method: as §2

MES-induced seizures = experiment: Maximal electroshock-induced seizure (MES) test; assay type: in vivo, male Swiss albino mice;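 for % protection MES 0.5 h: percent reduction of the test group versus the control group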;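 for % protection MES 4 h: percent reduction of the test group versus the control group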
[5] = oral, lowest dose active in half or more of the mice, 0.5 h, n = 6
[6] = oral, lowest dose active in half or more of the mice, 4 h, n = 6

## CCN(CC)CCOc1cccc(C(=O)Nc2nncs2)c1 [Compound 6d, 3-(2-(diethylamino)ethoxy)-N-(1,3,4-thiadiazol-2-yl)benzamide]
[1]
  TAC level (FRAP): significant increase in TAC levels
mice; at the highest dose (300 mg/kg)
  Neurotoxicity (rotarod test), result in words: without any sign of neurotoxicity
mice; rotarod, oral doses 30, 100, 300 mg/kg, 0.5 h
  Neurotoxicity dose (mg/kg) 0.5 h: - (The indication - (dash) denotes a lack of action at the maximum dose supplied (300 mg/kg))
mice; rotarod, oral doses 30, 100, 300 mg/kg, 4 h
  Neurotoxicity dose (mg/kg) 4 h: - (The indication - (dash) denotes a lack of action at the maximum dose supplied (300 mg/kg))
[2]
  IC50: 100 ± 20 nM
Glutathione (GSH)
  GSH level: significant increase in GSH levels
Nitric oxide (NO)
  NO (nitrite) level: significantly reduced NO levels
Induced seizures; 30 mg/kg oral
  Recovery/death: Recovery
Induced seizures; 100 mg/kg oral
  Recovery/death: Recovery
Induced seizures; 300 mg/kg oral
  Recovery/death: Recovery
GABA level
  GABA level in the brain: significant increase in GABA levels
[3]
  SOD activity: significant increase in SOD activity
PTZ-induced seizures; 30 mg/kg oral, 0.5 h
  % protection Sc-PTZ 0.5 h: 38.59%
PTZ-induced seizures; 30 mg/kg oral, 4 h
  % protection Sc-PTZ 4 h: 46.34%
PTZ-induced seizures; 100 mg/kg oral, 0.5 h
  % protection Sc-PTZ 0.5 h: 58.30%
PTZ-induced seizures; 100 mg/kg oral, 4 h
  % protection Sc-PTZ 4 h: 66.34%
PTZ-induced seizures; 300 mg/kg oral, 0.5 h
  % protection Sc-PTZ 0.5 h: 70.4%
PTZ-induced seizures; 300 mg/kg oral, 4 h
  % protection Sc-PTZ 4 h: 82.88%
PTZ-induced seizures; [5]
  Minimum active dose (mg/kg) Sc-PTZ 0.5 h: 30 mg/kg
PTZ-induced seizures; [6]
  Minimum active dose (mg/kg) Sc-PTZ 4 h: 30 mg/kg
[4]
  IC50: 80 ± 50 nM
MES-induced seizures; 30 mg/kg oral, 0.5 h
  % protection MES 0.5 h: 38.96%
MES-induced seizures; 30 mg/kg oral, 4 h
  % protection MES 4 h: 41.53%
MES-induced seizures; 100 mg/kg oral, 0.5 h
  % protection MES 0.5 h: 55.38%
MES-induced seizures; 100 mg/kg oral, 4 h
  % protection MES 4 h: 60%
MES-induced seizures; 300 mg/kg oral, 0.5 h
  % protection MES 0.5 h: 72.30%
MES-induced seizures; 300 mg/kg oral, 4 h
  % protection MES 4 h: 89.46%
MES-induced seizures; [5]
  Minimum active dose (mg/kg) MES 0.5 h: 30 mg/kg
MES-induced seizures; [6]
  Minimum active dose (mg/kg) MES 4 h: 30 mg/kg
